Data reported in ChEMBL document CHEMBL3885861, “Open TG-GATES”.

Species on record: Rattus norvegicus
Assay: Open TG-GATES - Regimen: Single
Type: toxicity, organism-based, Sprague-Dawley
Parameters: regimen Single, gender Male, age 6 weeks
Conditions: in vivo, po, 10 mg/kg, route gavage, dose level Low; for APTT / Bas / Eos / Fbg / Hb / Ht / Lym / MCH / MCHC / MCV / Mono / Neu / PT / Plat / RBC / Ret / WBC: tissue Blood; for KIDNEY_L / KIDNEY_R / KIDNEY_TOTAL: tissue Kidney; for LIVER: tissue Liver; for A/G / ALP / ALT / AST / BUN / CRE / Ca / Cl / DBIL / GLC / IP / K / LDH / Na / PL / RALB / TBIL / TC / TG / TP / gamma-GTP: tissue Plasma

`CCN(CC)N=O` [N-NITROSODIETHYLAMINE] showed a TERMINAL_BW (3 h) of 222.2 g, an APTT (3 h) of 18.5 s and a Bas (3 h) of 0.4%. It also gave an Eos (3 h) of 0.8%, a Fbg (3 h) of 221.2 mg/dL and a Hb (3 h) of 13.4 g/dL. The Ht (3 h) was 39.5%, the Lym (3 h) was 74.8% and the MCH (3 h) was 21.3 pg. For the same compound, the MCHC (3 h) was 33.9%, the MCV (3 h) was 62.8 fL and the Mono (3 h) was 2.2%. For the same compound, the Neu (3 h) was 21.2%, the PT (3 h) was 12.3 s and the Plat (3 h) was 120.1 x10_4/uL. It also gave an RBC (3 h) of 629.8 x10_4/ul, a Ret (3 h) of 7.4% and a WBC (3 h) of 85.8 x10_2/uL. The KIDNEY_L (3 h) was 1 g, the KIDNEY_R (3 h) was 1 g and the KIDNEY_TOTAL (3 h) was 2 g. It also gave an LIVER (3 h) of 9.3 g, an A/G (3 h) of 1.7 and an ALP (3 h) of 906.2 IU/L. The ALT (3 h) was 45 IU/L, the AST (3 h) was 74.4 IU/L and the BUN (3 h) was 10.8 mg/dL. For the same compound, the CRE (3 h) was 0.4 mg/dL, the Ca (3 h) was 10.2 mg/dL and the Cl (3 h) was 103 meq/L. It also gave a DBIL (3 h) of 0.062 mg/dL, a GLC (3 h) of 190.2 mg/dL and an IP (3 h) of 8.8 mg/dL. For the same compound, the K (3 h) was 3.6 meq/L, the LDH (3 h) was 194 IU/L and the Na (3 h) was 141.2 meq/L. For the same compound, the PL (3 h) was 123.4 mg/dL, the RALB (3 h) was 3.4 g/dL and the TBIL (3 h) was 0.1 mg/dL. The TC (3 h) was 77.4 mg/dL, the TG (3 h) was 34 mg/dL and the TP (3 h) was 5.4 g/dL. The gamma-GTP (3 h) was 1 IU/L, the TERMINAL_BW (6 h) was 226.2 g and the APTT (6 h) was 18.6 s. The Bas (6 h) was 0.6%, the Eos (6 h) was 1% and the Fbg (6 h) was 235 mg/dL. The Hb (6 h) was 13.3 g/dL, the Ht (6 h) was 39.1% and the Lym (6 h) was 78%. For the same compound, the MCH (6 h) was 20.7 pg, the MCHC (6 h) was 34% and the MCV (6 h) was 60.9 fL. It also gave a Mono (6 h) of 2.4%, a Neu (6 h) of 17.4% and a PT (6 h) of 12.1 s. For the same compound, the Plat (6 h) was 127.1 x10_4/uL, the RBC (6 h) was 642.4 x10_4/ul and the Ret (6 h) was 6.1%. For the same compound, the WBC (6 h) was 90.2 x10_2/uL, the KIDNEY_L (6 h) was 1 g and the KIDNEY_R (6 h) was 1 g. The KIDNEY_TOTAL (6 h) was 2 g, the LIVER (6 h) was 10.3 g and the A/G (6 h) was 1.5. For the same compound, the ALP (6 h) was 923.4 IU/L, the ALT (6 h) was 39 IU/L and the AST (6 h) was 69 IU/L. For the same compound, the BUN (6 h) was 14.2 mg/dL, the CRE (6 h) was 0.4 mg/dL and the Ca (6 h) was 10.4 mg/dL. It also gave a Cl (6 h) of 103.2 meq/L, a DBIL (6 h) of 0.078 mg/dL and a GLC (6 h) of 199.2 mg/dL. The IP (6 h) was 7.6 mg/dL, the K (6 h) was 3.7 meq/L and the LDH (6 h) was 220.8 IU/L. It also gave a Na (6 h) of 140.6 meq/L, a PL (6 h) of 144 mg/dL and an RALB (6 h) of 3.3 g/dL. For the same compound, the TBIL (6 h) was 0.1 mg/dL, the TC (6 h) was 81 mg/dL and the TG (6 h) was 62.6 mg/dL. It also gave a TP (6 h) of 5.6 g/dL, a gamma-GTP (6 h) of 1.2 IU/L and a TERMINAL_BW (9 h) of 226.3 g. The APTT (9 h) was 18.1 s, the Bas (9 h) was 0.8% and the Eos (9 h) was 1%. For the same compound, the Fbg (9 h) was 222.4 mg/dL, the Hb (9 h) was 14 g/dL and the Ht (9 h) was 40.2%. For the same compound, the Lym (9 h) was 80.6%, the MCH (9 h) was 21.7 pg and the MCHC (9 h) was 34.8%. The MCV (9 h) was 62.1 fL, the Mono (9 h) was 2.4% and the Neu (9 h) was 14.4%. The PT (9 h) was 12.2 s, the Plat (9 h) was 123.8 x10_4/uL and the RBC (9 h) was 647 x10_4/ul. It also gave a Ret (9 h) of 6.7%, a WBC (9 h) of 100.3 x10_2/uL and a KIDNEY_L (9 h) of 0.9 g. The KIDNEY_R (9 h) was 1 g, the KIDNEY_TOTAL (9 h) was 1.9 g and the LIVER (9 h) was 10.3 g. It also gave an A/G (9 h) of 1.6, an ALP (9 h) of 1025.2 IU/L and an ALT (9 h) of 38.6 IU/L. It also gave an AST (9 h) of 67.2 IU/L, a BUN (9 h) of 14.4 mg/dL and a CRE (9 h) of 0.4 mg/dL. The Ca (9 h) was 10.7 mg/dL, the Cl (9 h) was 103.2 meq/L and the DBIL (9 h) was 0.09 mg/dL. The GLC (9 h) was 188.4 mg/dL, the IP (9 h) was 8.3 mg/dL and the K (9 h) was 3.9 meq/L. The LDH (9 h) was 169.8 IU/L, the Na (9 h) was 141.4 meq/L and the PL (9 h) was 141.4 mg/dL. For the same compound, the RALB (9 h) was 3.5 g/dL, the TBIL (9 h) was 0.1 mg/dL and the TC (9 h) was 76 mg/dL. It also gave a TG (9 h) of 90.4 mg/dL, a TP (9 h) of 5.7 g/dL and a gamma-GTP (9 h) of 1.2 IU/L. The TERMINAL_BW (24 h) was 229.3 g, the APTT (24 h) was 19.1 s and the Bas (24 h) was 0.4%. It also gave an Eos (24 h) of 1%, a Fbg (24 h) of 235.6 mg/dL and a Hb (24 h) of 13.5 g/dL. For the same compound, the Ht (24 h) was 39.9%, the Lym (24 h) was 78.4% and the MCH (24 h) was 21.2 pg. For the same compound, the MCHC (24 h) was 33.9%, the MCV (24 h) was 62.5 fL and the Mono (24 h) was 3%. It also gave a Neu (24 h) of 16.6%, a PT (24 h) of 11.9 s and a Plat (24 h) of 124.7 x10_4/uL. The RBC (24 h) was 638.2 x10_4/ul, the Ret (24 h) was 6.6% and the WBC (24 h) was 79.1 x10_2/uL. For the same compound, the KIDNEY_L (24 h) was 1 g, the KIDNEY_R (24 h) was 1 g and the KIDNEY_TOTAL (24 h) was 2 g. It also gave an LIVER (24 h) of 10.1 g, an A/G (24 h) of 1.5 and an ALP (24 h) of 877 IU/L. For the same compound, the ALT (24 h) was 34.8 IU/L, the AST (24 h) was 64.4 IU/L and the BUN (24 h) was 14.4 mg/dL. The CRE (24 h) was 0.4 mg/dL, the Ca (24 h) was 10.7 mg/dL and the Cl (24 h) was 104.6 meq/L. It also gave a DBIL (24 h) of 0.086 mg/dL, a GLC (24 h) of 202.8 mg/dL and an IP (24 h) of 9.4 mg/dL. For the same compound, the K (24 h) was 4 meq/L, the LDH (24 h) was 208.6 IU/L and the Na (24 h) was 141.6 meq/L. It also gave a PL (24 h) of 142.6 mg/dL, an RALB (24 h) of 3.3 g/dL and a TBIL (24 h) of 0.1 mg/dL. For the same compound, the TC (24 h) was 73.8 mg/dL, the TG (24 h) was 86.4 mg/dL and the TP (24 h) was 5.5 g/dL. For the same compound, the gamma-GTP (24 h) was 1.4 IU/L.
